Kd and IC50 data for 29 molecules are collected here from US20240025906A1 (NEURON23, INC., priority 2022, published 2024).

The target in experiment [1] is T1, TYK2 JH2 (Homo sapiens, UniProt P29597).
T1 construct: purchased DiscoverX (KINOMEscan KdELECT service); host or cells: E. coli BL21-derived (T7 phage display) or HEK-293
In words: TYK2 JH2 binding assay (KINOMEscan KdELECT competitive binding). To be noted: TYK2 JH2 domain, KINOMEscan KdELECT (Assay A); read-out: Biochemical TYK2_DiscoverX_JH2_BND_Kd. In outline: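 The assay measures displacement of DNA- or phage-tagged TYK2 pseudokinase domain from an affinity resin; compound binding lowers the amount captured, read by qPCR. Incubation lasts 1 h at room temperature.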

Experiment [2] deals with JAK1/TYK2 pSTAT5 (Tyr694/699) in THP-1 cell line. In words: IFNa-stimulated JAK1/TYK2 pSTAT5 (Tyr694/699) inhibition cellular assay, AlphaLISA. The experiment is classed as cell-based. To be noted: Homo sapiens; THP-1 cells, IFNa-stimulated, AlphaLISA (Assay B); read-out: Cellular_THP1_IFNa-pSTATS_TYK2. In outline: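 THP-1, 2e4 cells/well, HBSS; cpd 1 h 37 °C (10000–0.04 nM final, 6-fold, 8 pt); IFNa 100 ng/mL added, 30 min; lyse, freeze −80 °C; pSTAT5 AlphaLISA, 615 nm; 4PL IC50, bottom fixed 0, slope −1.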
(In general: Alpha assays give light when donor and acceptor beads are brought close together.)

Structures are written as SMILES.

T1 sequence (P29597 589-875 limits assumed): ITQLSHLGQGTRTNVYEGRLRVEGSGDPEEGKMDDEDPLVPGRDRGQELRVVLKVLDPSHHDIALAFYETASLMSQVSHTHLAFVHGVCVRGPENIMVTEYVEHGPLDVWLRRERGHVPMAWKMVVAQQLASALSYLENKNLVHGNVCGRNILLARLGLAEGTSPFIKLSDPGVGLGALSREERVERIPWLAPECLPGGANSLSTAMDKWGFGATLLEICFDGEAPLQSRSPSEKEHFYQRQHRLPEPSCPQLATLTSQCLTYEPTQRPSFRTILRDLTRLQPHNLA

Regarding `CNc1ncc(C#Cc2ccc(OC)nc2)c2cc(NC(=O)C3CC3)ncc12` [Example 631, N-(5-((6-methoxypyridin-3-yl)ethynyl)-8-(methylamino)-2,7-naphthyridin-3-yl)cyclopropanecarboxamide], in experiment [1], the Kd was no more than 100 nM. The IC50 in experiment [2] is no more than 500 nM.
The like results for `CNc1ncc(C#Cc2cnccn2)c2cc(NC(=O)C3CC3)ncc12` [Example 632, N-(8-(methylamino)-5-(pyrazin-2-ylethynyl)-2,7-naphthyridin-3-yl)cyclopropanecarboxamide] were, in that order, no more than 100 nM and no more than 500 nM.
As to `CNc1ncc(C#Cc2cnc3ccccn23)c2cc(NC(=O)C3CC3)ncc12` [Example 633, N-(5-(imidazo[1,2-a]pyridin-3-ylethynyl)-8-(methylamino)-2,7-naphthyridin-3-yl)cyclopropanecarboxamide], the Kd in experiment [1] was no more than 100 nM. In addition, the IC50 in experiment [2] is no more than 500 nM.
Consider `CNc1ncc(C#Cc2ccc(OC(C)C)cc2)c2cc(NC(=O)C3CC3)ncc12` [Example 634, N-(5-((4-isopropoxyphenyl)ethynyl)-8-(methylamino)-2,7-naphthyridin-3-yl)cyclopropanecarboxamide], for which, in experiment [1], the Kd is no more than 100 nM. Further, the IC50 in experiment [2] is no more than 500 nM.
Taken in the same sequence, the figures for `CNc1ncc(C#Cc2ccc(OC)cc2Cl)c2cc(NC(=O)C3CC3)ncc12` [Example 635, N-(5-((2-chloro-4-methoxyphenyl)ethynyl)-8-(methylamino)-2,7-naphthyridin-3-yl)cyclopropanecarboxamide] were no more than 100 nM and no more than 500 nM.
Regarding `CNc1ncc(C#Cc2c(Cl)cc(OC)cc2Cl)c2cc(NC(=O)C3CC3)ncc12` [Example 636, N-(5-((2,6-dichloro-4-methoxyphenyl)ethynyl)-8-(methylamino)-2,7-naphthyridin-3-yl)cyclopropanecarboxamide], the Kd in experiment [1] was no more than 100 nM. Moreover, the IC50 in experiment [2] is greater than 500 nM.
Consider `CNc1ncc(C#Cc2ccc(S(=O)(=O)C3CC3)cc2)c2cc(NC(=O)C3CC3)ncc12` [Example 637, N-(5-((4-(cyclopropylsulfonyl)phenyl)ethynyl)-8-(methylamino)-2,7-naphthyridin-3-yl)cyclopropanecarboxamide], for which the Kd in experiment [1] is no more than 100 nM. Besides, in experiment [2], the IC50 is no more than 500 nM.
In the case of `CNc1ncc(C#Cc2ccc(OC3CC3)cc2)c2cc(NC(=O)C3CC3)ncc12` [Example 638, N-(5-((4-cyclopropoxyphenyl)ethynyl)-8-(methylamino)-2,7-naphthyridin-3-yl)cyclopropanecarboxamide], the Kd in experiment [1] is no more than 100 nM. Further, the IC50 in experiment [2] is no more than 500 nM.
Take `CNc1ncc(C#Cc2ccc(N3CCOCC3)cc2C)c2cc(NC(=O)C3CC3)ncc12` [Example 639, N-(5-((2-methyl-4-morpholinophenyl)ethynyl)-8-(methylamino)-2,7-naphthyridin-3-yl)cyclopropanecarboxamide]: the Kd in experiment [1] was no more than 100 nM. The IC50 in experiment [2] is no more than 500 nM.
As to `CNc1ncc(C#Cc2ccc(S(C)(=O)=O)cn2)c2cc(NC(=O)C3CC3)ncc12` [Example 640, N-(8-(methylamino)-5-((5-(methylsulfonyl)pyridin-2-yl)ethynyl)-2,7-naphthyridin-3-yl)cyclopropanecarboxamide], in experiment [1], the Kd was no more than 100 nM. For the same molecule, the IC50 in experiment [2] was no more than 500 nM.
Consider `CNc1ncc(C#Cc2cccnn2)c2cc(NC(=O)C3CC3)ncc12` [Example 641, N-(8-(methylamino)-5-(pyridazin-3-ylethynyl)-2,7-naphthyridin-3-yl)cyclopropanecarboxamide], for which the Kd in experiment [1] is no more than 100 nM. Also, the IC50 in experiment [2] was no more than 500 nM.
Consider `CNc1ncc(C#Cc2ccc3oc(CO)cc3c2)c2cc(NC(=O)C3CC3)ncc12` [Example 642, N-(5-((2-(hydroxymethyl)benzofuran-5-yl)ethynyl)-8-(methylamino)-2,7-naphthyridin-3-yl)cyclopropanecarboxamide], for which the Kd in experiment [1] is no more than 100 nM. For the same molecule, the IC50 in experiment [2] is no more than 500 nM.
The like results for `CNc1ncc(C#Cc2ncc(OC)cc2Cl)c2cc(NC(=O)C3CC3)ncc12` [Example 643, N-(5-((3-chloro-5-methoxypyridin-2-yl)ethynyl)-8-(methylamino)-2,7-naphthyridin-3-yl)cyclopropanecarboxamide] were, in that order, no more than 100 nM and no more than 500 nM.
The like results for `CNc1ncc(C#Cc2ccc(OC(F)(F)F)cn2)c2cc(NC(=O)C3CC3)ncc12` [Example 644, N-(8-(methylamino)-5-((5-(trifluoromethoxy)pyridin-2-yl)ethynyl)-2,7-naphthyridin-3-yl)cyclopropanecarboxamide] were, in that order, no more than 100 nM and no more than 500 nM.
Consider `CNc1ncc(C#Cc2ccc(OC(F)F)cn2)c2cc(NC(=O)C3CC3)ncc12` [Example 645, N-(5-((5-(difluoromethoxy)pyridin-2-yl)ethynyl)-8-(methylamino)-2,7-naphthyridin-3-yl)cyclopropanecarboxamide], for which the Kd in experiment [1] is no more than 100 nM. Moreover, the IC50 in experiment [2] was no more than 500 nM.
`CNc1ncc(C#Cc2ccncc2C(F)(F)F)c2cc(NC(=O)C3CC3)ncc12` [Example 646, N-(8-(methylamino)-5-((3-(trifluoromethyl)pyridin-4-yl)ethynyl)-2,7-naphthyridin-3-yl)cyclopropanecarboxamide]: the Kd in experiment [1] is no more than 100 nM. The IC50 in experiment [2] is no more than 500 nM.
The like results for `CNc1ncc(C#Cc2ccc3nc(C)n(C)c3c2)c2cc(NC(=O)C3CC3)ncc12` [Example 647, N-(5-((1,2-dimethyl-1H-benzo[d]imidazol-6-yl)ethynyl)-8-(methylamino)-2,7-naphthyridin-3-yl)cyclopropanecarboxamide] were, in that order, no more than 100 nM and no more than 500 nM.
In the case of `CNc1ncc(C#Cc2ccc(COC)cc2)c2cc(NC(=O)C3CC3)ncc12` [Example 648, N-(5-((4-(methoxymethyl)phenyl)ethynyl)-8-(methylamino)-2,7-naphthyridin-3-yl)cyclopropanecarboxamide], the Kd in experiment [1] is no more than 100 nM. Moreover, the IC50 in experiment [2] is no more than 500 nM.
Taken in the same sequence, the figures for `CNc1ncc(C#Cc2ccc3c(cnn3C)c2)c2cc(NC(=O)C3CC3)ncc12` [Example 649, N-(5-((1-methyl-1H-indazol-5-yl)ethynyl)-8-(methylamino)-2,7-naphthyridin-3-yl)cyclopropanecarboxamide] were no more than 100 nM and no more than 500 nM.
As for `CNc1ncc(C#Cc2ccc(SC)cc2)c2cc(NC(=O)C3CC3)ncc12` [Example 650, N-(8-(methylamino)-5-((4-(methylthio)phenyl)ethynyl)-2,7-naphthyridin-3-yl)cyclopropanecarboxamide], the Kd in experiment [1] is no more than 100 nM. Besides, the IC50 in experiment [2] was no more than 500 nM.
`CNc1ccc(C#Cc2cnc(NC)c3cnc(NC(=O)C4CC4)cc23)cc1` [Example 651, N-(8-(methylamino)-5-((4-(methylamino)phenyl)ethynyl)-2,7-naphthyridin-3-yl)cyclopropanecarboxamide]: the Kd in experiment [1] was no more than 100 nM. Also, the IC50 in experiment [2] is no more than 500 nM.
As to `CNc1ncc(C#Cc2ccccc2C(C)(C)O)c2cc(NC(=O)C3CC3)ncc12` [Example 652, N-(5-((2-(2-hydroxypropan-2-yl)phenyl)ethynyl)-8-(methylamino)-2,7-naphthyridin-3-yl)cyclopropanecarboxamide], the Kd in experiment [1] is no more than 100 nM. The IC50 in experiment [2] was no more than 500 nM.
With `CNc1ncc(C#Cc2cnn(C)n2)c2cc(NC(=O)C3CC3)ncc12` [Example 653, N-(5-((2-methyl-2H-1,2,3-triazol-4-yl)ethynyl)-8-(methylamino)-2,7-naphthyridin-3-yl)cyclopropanecarboxamide], the Kd in experiment [1] is no more than 100 nM. Moreover, the IC50 in experiment [2] is no more than 500 nM.
As for `CNc1ncc(C#Cc2ccc(OC(F)F)cc2)c2cc(NC(=O)C3CC3)ncc12` [Example 654, N-(5-((4-(difluoromethoxy)phenyl)ethynyl)-8-(methylamino)-2,7-naphthyridin-3-yl)cyclopropanecarboxamide], the Kd in experiment [1] is no more than 100 nM. The IC50 in experiment [2] was no more than 500 nM.
`CNc1ncc(C#Cc2ccc(C(C)(F)F)cc2)c2cc(NC(=O)C3CC3)ncc12` [Example 655]: the Kd in experiment [1] is no more than 100 nM. The IC50 in experiment [2] was no more than 500 nM.
Consider `CNc1ncc(C#Cc2ccc(OCF)cc2)c2cc(NC(=O)C3CC3)ncc12` [Example 656, N-(5-((4-(fluoromethoxy)phenyl)ethynyl)-8-(methylamino)-2,7-naphthyridin-3-yl)cyclopropanecarboxamide], for which, in experiment [1], the Kd is no more than 100 nM. In addition, in experiment [2], the IC50 was no more than 500 nM.
Turning to `CNc1ncc(C#Cc2ccc(C(F)(F)F)cn2)c2cc(NC(=O)C3CC3)ncc12` [Example 657, N-(8-(methylamino)-5-((5-(trifluoromethyl)pyridin-2-yl)ethynyl)-2,7-naphthyridin-3-yl)cyclopropanecarboxamide], the Kd in experiment [1] is no more than 100 nM. Further, the IC50 in experiment [2] was no more than 500 nM.
Regarding `CNc1ncc(C#Cc2ccc(C(F)F)cn2)c2cc(NC(=O)C3CC3)ncc12` [Example 658], the Kd in experiment [1] is no more than 100 nM. Also, in experiment [2], the IC50 is no more than 500 nM.
`CNc1ncc(C#Cc2ccc(C)cn2)c2cc(NC(=O)C3CC3)ncc12` [Example 659, N-(8-(methylamino)-5-((5-methylpyridin-2-yl)ethynyl)-2,7-naphthyridin-3-yl)cyclopropanecarboxamide]: in experiment [1], the Kd is no more than 100 nM. Also, the IC50 in experiment [2] is no more than 500 nM.
